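Step 1: Grow cells in 96-well plates. Step 2: Expose to compound for 48 hours at 5 concentrations. Step 3: Interpolate endpoints linearly; if unreached, use highest concentration. GI50 is the concentration that inhibits growth by half. TGI is the concentration that stops growth completely.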
Tests used:
Experiment in all cases: growth of human tumour cells (NCI), 48 h
[1] = system: NCI-H460 lung
[2] = system: SK-MEL-2 melanoma
[3] = system: PC-3 prostate
[4] = system: EKVX NSCLC
[5] = system: NCI-H226 lung
[6] = system: TK-10 renal
[7] = system: SK-OV-3 ovarian
[8] = system: LOX IMVI melanoma
[9] = system: SK-MEL-28 melanoma
[10] = system: SR leukemia
[11] = system: KM12 colon
[12] = system: HOP-92 NSCLC
[13] = system: SW-620 colon
[14] = system: MDA-MB-435
[15] = system: RXF 393 renal
[16] = system: NCI-H522 lung
[17] = system: CCRF-CEM leukemia
[18] = system: U251 CNS
[19] = system: A549 NSCLC
[20] = system: NCI-H23 lung
[21] = system: HCC-2998 colon
[22] = system: HOP-62 NSCLC
[23] = system: SF-539 CNS
[24] = system: HCT-116 colon
[25] = system: OVCAR-5 ovarian
[26] = system: UACC-62 melanoma
[27] = system: HL-60(TB) leukemia
[28] = system: RPMI-8226 leukemia
[29] = system: SK-MEL-5 melanoma
[30] = system: M14 melanoma
[31] = system: MDA-MB-231 breast
[32] = system: K-562 leukemia
[33] = system: BT-549 breast
[34] = system: MOLT-4 leukemia
[35] = system: OVCAR-4 ovarian
[36] = system: MCF7 breast
[37] = system: OVCAR-8 ovarian
[38] = system: UO-31 renal
[39] = system: OVCAR-3 ovarian
[40] = system: SNB-75 CNS
[41] = system: IGROV1 ovarian
[42] = system: SF-268 CNS
[43] = system: SNB-19 CNS
[44] = system: MALME-3M melanoma
[45] = system: UACC-257 melanoma
[46] = system: HT29 colon
[47] = system: HCT-15 colon
[48] = system: A498 renal
[49] = system: SN12C renal
[50] = system: CAKI-1 renal
[51] = system: HS 578T breast
[52] = system: ACHN renal
[53] = system: T-47D breast
[54] = system: DU-145 prostate
[55] = system: COLO 205 colon
[56] = system: NCI/ADR-RES ovarian
[57] = system: SF-295 CNS
[58] = system: 786-0 renal

COc1ccc2[nH]c(C(=O)N3CCN(C(=O)OCc4ccc5c(Br)cc(Br)c(O)c5n4)CC3)cc2c1
GI50 [1]: 1.36 µM
TGI [1]: 3.14 µM
GI50 [2]: 0.577 µM
TGI [2]: 1.55 µM
GI50 [3]: 0.442 µM
TGI [3]: 1.5 µM
GI50 [4]: 1.37 µM
TGI [4]: 2.93 µM
GI50 [5]: 0.496 µM
TGI [5]: 1.05 µM
GI50 [6]: 0.306 µM
TGI [6]: 1.01 µM
GI50 [7]: 1.87 µM
TGI [7]: 3.39 µM
GI50 [8]: 0.172 µM
TGI [8]: 0.334 µM
GI50 [9]: 0.448 µM
TGI [9]: 1.51 µM
GI50 [10]: 0.243 µM
TGI [10]: 1.23 µM
GI50 [11]: 1.37 µM
TGI [11]: 2.83 µM
GI50 [12]: 0.178 µM
TGI [12]: 0.86 µM
GI50 [13]: 0.222 µM
TGI [13]: 0.507 µM
GI50 [14]: 0.258 µM
TGI [14]: 0.695 µM
GI50 [15]: 0.208 µM
TGI [15]: 0.575 µM
GI50 [16]: 0.206 µM
TGI [16]: 0.546 µM
GI50 [17]: 0.238 µM
TGI [17]: 1.63 µM
GI50 [18]: 1.29 µM
TGI [18]: 2.59 µM
GI50 [19]: 1.68 µM
TGI [19]: 3.59 µM
GI50 [20]: 1.48 µM
TGI [20]: 3.15 µM
GI50 [21]: 0.898 µM
TGI [21]: 2.39 µM
GI50 [22]: 1.59 µM
TGI [22]: 3.66 µM
GI50 [23]: 0.926 µM
TGI [23]: 2.25 µM
GI50 [24]: 0.178 µM
TGI [24]: 0.393 µM
GI50 [25]: 0.603 µM
TGI [25]: 1.98 µM
GI50 [26]: 0.258 µM
TGI [26]: 0.749 µM
GI50 [27]: 0.318 µM
TGI [27]: 1.14 µM
GI50 [28]: 0.243 µM
TGI [28]: 0.809 µM
GI50 [29]: 0.62 µM
TGI [29]: 1.77 µM
GI50 [30]: 0.262 µM
TGI [30]: 0.753 µM
GI50 [31]: 0.388 µM
TGI [31]: 1.39 µM
GI50 [32]: 0.294 µM
TGI [32]: 0.978 µM
GI50 [33]: 0.213 µM
TGI [33]: 0.585 µM
GI50 [34]: 0.298 µM
TGI [34]: 0.966 µM
GI50 [35]: 0.302 µM
TGI [35]: 0.972 µM
GI50 [36]: 0.262 µM
TGI [36]: 1.18 µM
GI50 [37]: 0.277 µM
TGI [37]: 0.857 µM
GI50 [38]: 0.153 µM
TGI [38]: 0.323 µM
GI50 [39]: 0.197 µM
TGI [39]: 0.427 µM
GI50 [40]: 0.735 µM
TGI [40]: 2.16 µM
GI50 [41]: 0.368 µM
TGI [41]: 1.36 µM
GI50 [42]: 1.2 µM
TGI [42]: 2.74 µM
GI50 [43]: 1.46 µM
TGI [43]: 2.83 µM
GI50 [44]: 1.02 µM
TGI [44]: 2.37 µM
GI50 [45]: 0.447 µM
TGI [45]: 1.4 µM
GI50 [46]: 0.318 µM
TGI [46]: 1.03 µM
GI50 [47]: 0.219 µM
TGI [47]: 0.596 µM
GI50 [48]: 1.58 µM
TGI [48]: 2.98 µM
GI50 [49]: 0.313 µM
TGI [49]: 1.07 µM
GI50 [50]: 0.244 µM
TGI [50]: 0.749 µM
GI50 [51]: 1.05 µM
TGI [51]: 4.29 µM
GI50 [52]: 0.17 µM
TGI [52]: 0.335 µM
GI50 [53]: 1.35 µM
TGI [53]: 4.46 µM
GI50 [54]: 0.396 µM
TGI [54]: 1.37 µM
GI50 [55]: 0.193 µM
TGI [55]: 0.426 µM
GI50 [56]: 0.336 µM
TGI [56]: 1.76 µM
GI50 [57]: 1.61 µM
TGI [57]: 3.03 µM
GI50 [58]: 0.27 µM
TGI [58]: 0.759 µM

Source: PubChem BioAssay (NCI)
